Tested on: HIV with mutations in the HIV protease sequence
Assay: Phenotypic fold resistance to protease inhibitors, protease mutations 84A/84L/84C/54M/54L/54V in a background (Examples 8-13)
Assay type: cell-based, HIV-1
Procedure: As is the case with the genotyping assays, the recombinant virus assay starts with the amplification of viral target sequences by means of PCR. The amplicons are incorporated into a proviral laboratory clone with sequences homologous to those present in the amplicon deleted. This generates a stock of chimeric viruses. The viruses are tested for their ability to grow in the presence of different concentrations of drugs. Results are obtained by calculating IC50 values for each inhibitor and by reporting the results as IC50 values, expressed in μM concentrations, or by computing the ratio of the IC50 values found for the chimeric virus to the IC50 values found for a wild type susceptible laboratory virus tested in parallel. In the latter case, resistance is expressed as “fold-resistance” compared to a wild-type susceptible HIV-1 strain. In order to meet the need for high-volume testing and a short turn-around time for an individual test, the latest generation of phenotyping assays has undergone further modifications. The use of reporter gene systems for susceptibility testing allows the implementation of laboratory automation and standardization. See Pauwels, et al., J. Virol. Methods 20, 309-321 (1998); Paulous, S., et al., International Workshop on HIV Drug Resistance, Treatment Strategies and Eradication, St. Petersburg, Fla., USA. Abstr. 46 (1997); and Deeks, S. G., et al., 2nd International Workshop on HIV Drug Resistance and Treatment Strategies, Lake Maggiore, Italy. Abstr. 53 (1998).
The ANTIVIROGRAM® assay (Virco) (WO 97/27480) is based on homologous recombination of patient derived HIV-1 gag/PR/RT sequences into a proviral HIV-1 clone correspondingly deleted for the gag/PR/RT sequences. See Pauwels, et al., J. Virol. Methods 20, 309-321 (1998). A similar assay (Phenosense ViroLogic) is based on enzymatic ligation of patient-derived PR/RT sequences into a correspondingly deleted proviral vector carrying an indicator gene, luciferase, inserted in the deleted HIV-1 envelope gene. See Deeks, S. G., et al., 2nd International Workshop on HIV Drug Resistance and Treatment Strategies, Lake Maggiore, Italy. Abstr. 53 (1998). Hertogs et al. Antimicrob. Agents Chemother. 44(3) 568-573 (2000) the disclosures of which are herein incorporated by reference.
The methods of monitoring HIV-1 drug resistance, may also be used in combination with phenotypic drug resistance testing of viral isolates. For example, in one embodiment, a phenotypic test is utilized that is based upon the construction of chimeric HIV-1 strains composed of the protease (PR) and reverse transcriptase (RT) gene sequences which are isolated and amplified from the patient viral RNA. These strains may subsequently be recombined inside CD4+ T cells with a standard laboratory isogenic (HXB2) HIV-1 DNA construct from which the PR/RT gene sequences were deleted. The recombinant strains may then be grown in the presence of the above-mentioned antiviral drugs and the susceptibility of the viral isolates may be expressed as fold-change value of the IC50 of the drug on the patient isolates over the IC50 of the drug on a wild-type laboratory reference strain.

CC(C)(C)NC(=O)[C@@H]1CN(Cc2cccnc2)CCN1C[C@@H](O)C[C@@H](Cc1ccccc1)C(=O)N[C@H]1c2ccccc2C[C@H]1O [Indinavir, indinavir]
mean fold increase in resistance (Table 9 #1, protease genotype WT): 0.9 fold
mean fold increase in resistance (Table 9 #2, protease genotype 10I): 0.7 fold
mean fold increase in resistance (Table 9 #3, protease genotype 46I): 0.6 fold
mean fold increase in resistance (Table 9 #4, protease genotype 46I + 84V): 2.6 fold
mean fold increase in resistance (Table 9 #5, protease genotype 46I + 84A): 26.8 fold
mean fold increase in resistance (Table 9 #6, protease genotype 10I + 46I): 2.9 fold
mean fold increase in resistance (Table 9 #7, protease genotype 10I + 46I + 84V): 2.4 fold
mean fold increase in resistance (Table 9 #8, protease genotype 10I + 46I + 84A): 33.4 fold
mean fold increase in resistance (Table 9 #9, protease genotype 10L/I + 46I + 84A): 44.5 fold
mean fold increase in resistance (Table 9 #10, protease genotype 10I + 46I + 84A): 26 fold
mean fold increase in resistance (Table 9 #11, protease genotype 46I + 71V): 3.7 fold
mean fold increase in resistance (Table 9 #12, protease genotype 46I + 71V + 84V/I): 3.1 fold
mean fold increase in resistance (Table 9 #13, protease genotype 46I + 71V + 84A): 56.5 fold
mean fold increase in resistance (Table 9 #14, protease genotype 10F + 46I + 71V): 22.2 fold
mean fold increase in resistance (Table 9 #15, protease genotype 10I + 46I + 71V + 84V): 50.5 fold
mean fold increase in resistance (Table 9 #16, protease genotype 10I + 46I + 71V + 84A): 45.9 fold
mean fold increase in resistance (Table 9 #17, protease genotype 10V + 46I + 71T + 84A): 57.9 fold
mean fold increase in resistance (Table 9 #18, protease genotype 10I + 46I + 71V + 77I): 2.2 fold
mean fold increase in resistance (Table 9 #19, protease genotype 10I + 46I + 71V + 77I + 84V): 2.2 fold
mean fold increase in resistance (Table 9 #20, protease genotype 10I + 46I + 71V + 77I + 84A): 57.9 fold
mean fold increase in resistance (Table 9 #21, protease genotype 10I + 33L/I + 46I + 71V + 77V/I + 84A): 31.4 fold
mean fold increase in resistance (Table 10 #1, protease genotype 10I + 36I + 71V): 1.4 fold
mean fold increase in resistance (Table 10 #2, protease genotype 10I + 36I + 71I + 84V): 1.0 fold
mean fold increase in resistance (Table 10 #3, protease genotype 10I + 36I + 71I + 84L): 3.7 fold
mean fold increase in resistance (Table 11 #1, protease genotype WT): 0.9 fold
mean fold increase in resistance (Table 11 #2, protease genotype 84V): 0.7 fold
mean fold increase in resistance (Table 11 #3, protease genotype 84C): 2.7 fold
mean fold increase in resistance (Table 11 #4, protease genotype 10I): 0.7 fold
mean fold increase in resistance (Table 11 #5, protease genotype 10I + 84V): 1.8 fold
mean fold increase in resistance (Table 11 #6, protease genotype 10I + 84C): 4.3 fold
mean fold increase in resistance (Table 11 #7, protease genotype 77I): 0.4 fold
mean fold increase in resistance (Table 11 #8, protease genotype 77I + 84V): 2.5 fold
mean fold increase in resistance (Table 11 #9, protease genotype 77I + 84C): 3.1 fold
mean fold increase in resistance (Table 11 #10, protease genotype 77I + 84C): 3.2 fold
mean fold increase in resistance (Table 11 #11, protease genotype 10I + 24I + 36I + 46I + 71V + 84C): 7.5 fold
Fold change in IC50 (Table 12, V19263, genotype 77I): 0.4 fold
Fold change in IC50 (Table 12, V20160, genotype WT): 0.9 fold
Fold change in IC50 (Table 12, V021667, genotype 10I): 0.7 fold
Fold change in IC50 (Table 12, V030496, genotype 10I + 77I): 0.4 fold
Fold change in IC50 (Table 12, V048869, genotype 10I + 54M + 77I + 90M): 7.1 fold
Fold change in IC50 (Table 12, V048872, genotype 33F + 54M + 77I + 90M): 3.2 fold
Fold change in IC50 (Table 12, V048873, genotype 33F + 54M + 77I + 90M): 1.7 fold
Fold change in IC50 (Table 12, V048877, genotype 10I + 33F + 77I + 90M): 2.9 fold
Fold change in IC50 (Table 12, V048878, genotype 10I + 33F + 54M + 71V + 77I + 90M): 5.2 fold
Fold change in IC50 (Table 12, V048879, genotype 10I + 33F + 54M + 71V + 77I + 90M): 6.5 fold
Fold change in IC50 (Table 12, V048880, genotype 10I + 33F + 77I + 90M): 1.3 fold
Fold change in IC50 (Table 12, V052940, genotype 71V): 0.7 fold
Fold change in IC50 (Table 12, V052942, genotype 10I + 71V): 0.6 fold
Fold change in IC50 (Table 12, V052943, genotype 10I + 90M): 0.5 fold
Fold change in IC50 (Table 12, V052944, genotype 10I + 90M): 0.5 fold
Fold change in IC50 (Table 12, V052945, genotype 77I + 90M): 0.6 fold
Fold change in IC50 (Table 12, V052946, genotype 71V + 90M): 0.9 fold
Fold change in IC50 (Table 12, V052947, genotype 10I + 77I + 90M): 2.9 fold
Fold change in IC50 (Table 12, V052948, genotype 10I + 71V + 90M): 8.6 fold
Fold change in IC50 (Table 12, V052949, genotype 10I + 71V + 77I + 90M): 2.7 fold
Fold change in IC50 (Table 12, V052950, genotype 33F): 0.6 fold
Fold change in IC50 (Table 12, V052951, genotype 33F + 77I): 0.4 fold
Fold change in IC50 (Table 12, V052953, genotype 10I + 33F + 77I): 0.8 fold
Fold change in IC50 (Table 12, V052954, genotype 33F + 77I + 90M): 1.7 fold
Fold change in IC50 (Table 12, V052955, genotype 33F + 71V + 90M): 5.3 fold
Fold change in IC50 (Table 12, V052977, genotype 10I + 33F + 54M): 1.8 fold
Fold change in IC50 (Table 12, V052978, genotype 10I + 33F + 54M + 71V + 90M): 5.4 fold
Fold change in IC50 (Table 12, V052979, genotype 10I + 54M): 1.8 fold
Fold change in IC50 (Table 12, V052980, genotype 10I + 54M + 90M): 1.3 fold
Fold change in IC50 (Table 12, V052981, genotype 10I + 54M + 71V + 90M): 3.2 fold
Fold change in IC50 (Table 12, V052982, genotype 10I + 54M + 71V + 77I + 90M): 2.4 fold
Fold change in IC50 (Table 12, V053832, genotype 10I + 33F): 0.4 fold

Source: patent US8574831B2, “Mutational profiles in HIV-1 reverse transcriptase correlated with phenotypic drug resistance” (Virco N.V., priority 2000, dated 2013)
